What follows are compounds tested on male Long-Evans rats (assay: Focal cerebral ischemia (MCA cauterization with temporary bilateral CCA occlusion)). Settings: 5 mg/kg i.p. 2 h before and 2 h after MCA occlusion; 24 h; mean±SD; control 165.2±34.0; p<0.001.
Format: in vivo, rat
Experimental: Focal cerebral ischemia is produced by cauterization of the right distal MCA (middle cerebral artery) with bilateral temporary common carotid artery occlusion in male Long-Evans rats for 90 minutes. All procedures performed on the animals are approved by the University Institutional Animal Care and Use Committee of the University of Pennsylvania. A total of 42 rats (weights: 230-340 g) obtained from Charles River were used in this study. The animals fasted overnight with free access to water prior to the surgical procedure
Two hours prior to MCA occlusion, varying amounts (control, n=14; 5 mg/kg, n=7; 10 mg/kg, n=7; 20 mg/kg, n=7; and 40 mg/kg, n=7) of the compound, 3,4-dihydro-5-[4-(1-piperidinyl)-butoxy]-1(2H)-isoquinolinone (“DPQ”) were dissolved in dimethyl sulfoxide (DMSO) using a sonicator. A volume of 1.28 ml/kg of the resulting solution was injected intraperitoneally into […].
The rats were then anesthetized with halothane (4% for induction and 0.8%-1.2% for the surgical procedure) in a mixture of 70% nitrous oxide and 30% oxygen. The body temperature was monitored by a rectal probe and maintained at 37.5±0.5° C. with a heating blanket regulated by a homeothermic blanket control unit (Harvard Apparatus Limited, Kent, U.K.). A catheter (PE-50) was placed into the tail artery, and arterial pressure was continuously monitored and recorded on a Grass polygraph recorder (Model 7D, Grass Instruments, Quincy, Mass.). Samples for blood gas analysis (arterial pH, PaO2 and PaCO2) were also taken from the tail artery catheter and measured with a blood gas analyzer (ABL 30, Radiometer, Copenhagen, Denmark). Arterial blood samples were obtained 30 minutes after MCA occlusion.
The head of the animal was positioned in a stereotaxic frame, and a right parietal incision between the right lateral canthus and the external auditory meatus was made. Using a dental drill constantly cooled with saline, a 3 mm burr hole was prepared over the cortex supplied by the right MCA, 4 mm lateral to the sagittal suture and 5 mm caudal to the coronal suture. The dura mater and a thin inner bone layer were kept, care being taken to position the probe over a tissue area devoid of large blood vessels. The flow probe (tip diameter of 1 mm, fiber separation of 0.25 mm) was lowered to the bottom of the cranial burr hole using a micromanipulator. The probe was held stationary by a probe holder secured to the skull with dental cement. The microvascular blood flow in the right parietal cortex was continuously monitored with a laser Doppler flowmeter (FloLab, Moor, Devon, U.K., and Periflux 4001, Perimed, Stockholm, Sweden). […]
In the case of `O=C1NCCc2c(OCCCCN3CCCCC3)cccc21` [DPQ, 3,4-dihydro-5-[4-(1-piperidinyl)-butoxy]-1(2H)-isoquinolinone], the “damaged volume (total volume of infarction)” value (from here on “damaged volume”) is reported as 106.7±23.2 mm^3.

Same assay, conditions: 10 mg/kg i.p. 2 h before and 2 h after MCA occlusion; 24 h; mean±SD; control 165.2±34.0 mm^3; p<0.001
For `O=C1NCCc2c(OCCCCN3CCCCC3)cccc21` [DPQ, 3,4-dihydro-5-[4-(1-piperidinyl)-butoxy]-1(2H)-isoquinolinone], the “damaged volume” value was 76.4±16.8 mm.

Same assay, conditions: 20 mg/kg i.p. 2 h before and 2 h after MCA occlusion; 24 h; mean±SD; control 165.2±34.0; p<0.01
In the case of `O=C1NCCc2c(OCCCCN3CCCCC3)cccc21` [DPQ, 3,4-dihydro-5-[4-(1-piperidinyl)-butoxy]-1(2H)-isoquinolinone], the “damaged volume” value is reported as 110.2±42.0 mm^3.

Same assay, conditions: 40 mg/kg i.p. 2 h before and 2 h after MCA occlusion; 24 h; mean±SD; no significant difference from control 165.2±34.0
`O=C1NCCc2c(OCCCCN3CCCCC3)cccc21` [DPQ, 3,4-dihydro-5-[4-(1-piperidinyl)-butoxy]-1(2H)-isoquinolinone] was tested, and the “damaged volume” value was 135.6±44.8 mm^3.

Each compound was assayed against T1, purified recombinant human PARP (Homo sapiens, UniProt P09874) (assay: PARP enzyme assay (IC50), [3H]NAD incorporation). Settings: approximate IC50 values; 25° C., 15 minutes.
T1 construct: purchased Trevigan (Gaithersburg, Md.)
T1 sequence (P09874 whole entry): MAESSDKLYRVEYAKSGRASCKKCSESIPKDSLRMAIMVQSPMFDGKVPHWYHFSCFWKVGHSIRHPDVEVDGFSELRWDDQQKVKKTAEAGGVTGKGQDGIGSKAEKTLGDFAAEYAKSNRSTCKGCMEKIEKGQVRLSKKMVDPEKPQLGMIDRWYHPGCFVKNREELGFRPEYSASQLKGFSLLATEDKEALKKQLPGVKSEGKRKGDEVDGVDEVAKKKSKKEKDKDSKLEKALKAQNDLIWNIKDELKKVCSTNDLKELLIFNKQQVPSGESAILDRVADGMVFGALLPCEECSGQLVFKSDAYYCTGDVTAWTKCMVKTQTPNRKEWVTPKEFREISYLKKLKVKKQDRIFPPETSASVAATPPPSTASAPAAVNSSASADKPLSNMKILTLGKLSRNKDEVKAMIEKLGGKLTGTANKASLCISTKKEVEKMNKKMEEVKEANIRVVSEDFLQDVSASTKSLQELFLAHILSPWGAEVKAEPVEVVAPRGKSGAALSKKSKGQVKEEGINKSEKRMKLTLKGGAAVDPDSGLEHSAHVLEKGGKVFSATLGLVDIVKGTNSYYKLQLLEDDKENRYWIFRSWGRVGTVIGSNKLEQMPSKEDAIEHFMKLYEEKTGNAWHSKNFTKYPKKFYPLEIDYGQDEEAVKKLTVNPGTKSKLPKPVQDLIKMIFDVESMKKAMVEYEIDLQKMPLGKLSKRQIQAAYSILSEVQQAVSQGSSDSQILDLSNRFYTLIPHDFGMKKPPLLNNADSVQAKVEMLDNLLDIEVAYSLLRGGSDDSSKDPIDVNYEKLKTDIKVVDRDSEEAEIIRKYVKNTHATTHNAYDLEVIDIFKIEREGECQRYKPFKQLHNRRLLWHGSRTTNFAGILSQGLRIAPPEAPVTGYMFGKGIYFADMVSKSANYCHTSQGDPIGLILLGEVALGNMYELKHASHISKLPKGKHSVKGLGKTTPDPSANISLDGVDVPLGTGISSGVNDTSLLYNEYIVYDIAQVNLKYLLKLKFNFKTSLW
Format: biochemical
Experimental: The reaction is initiated by incubating the mixture at 25° C. After 15 minutes of incubation. the reaction is terminated by adding 500 microliters of ice cold 20% (w/v) trichloroacetic acid. The precipitate formed is transferred onto a glass fiber filter (Packard Unifilter-GF/B) and washed three times with ethanol. After the filter is dried, the radioactivity is determined by scintillation counting.
For `C[N+](C)(C)CC(=O)Nc1ccc2[nH]c(=O)c3ccccc3c2c1` [Compound 7], the IC50 was 30 nM. In the case of `O=c1[nH]c2ccc(S(=O)(=O)O)cc2c2ccccc12` [Compound 22], the IC50 is reported as 115 nM. In the case of `O=C(Nc1ccc2[nH]c(=O)c3ccccc3c2c1)c1ccc(F)cc1` [Compound 31], the IC50 is reported as 69 nM. For `O=C(NC(Cc1ccc2ccccc2c1)C(=O)O)c1ccc2c(c1)[nH]c(=O)c1ccccc12` (stereo not drawn) [Compound 42], the IC50 was 19 nM. For `O=c1[nH]c2ccc(S(=O)(=O)NCCN3CCCC3)cc2c2ccccc12` [Compound 53], the IC50 was 74 nM. With `O=C(NCCN1CCOCC1)c1ccc2c(c1)[nH]c(=O)c1ccccc12` [Compound 40] the IC50 was 35 nM. Compound `NCCN1CCN(S(=O)(=O)c2ccc3[nH]c(=O)c4ccccc4c3c2)CC1` [Compound 51] has an IC50 of 99 nM. Compound `Cc1cc2[nH]c(=O)c3ccccc3c2cc1NC(=O)CCc1ccccc1` [Compound 59] has an IC50 of 7500 nM. In the case of `O=C(CCl)Nc1ccc2[nH]c(=O)c3ccccc3c2c1` [Compound 5], the IC50 is reported as 80 nM. Work on `O=C(N[C@@H](Cc1ccccc1)C(=O)O)c1ccc2c(c1)[nH]c(=O)c1ccccc12` [Compound 34] yielded an IC50 of 65 nM. Compound `O=c1[nH]c2ccc(S(=O)(=O)NCCN3CCOCC3)cc2c2ccccc12` [Compound 4] has an IC50 of 140 nM. For `O=C(NCCN1CCOCC1)c1ccc2c(c1)[nH]c(=O)c1ccccc12` [Compound 9], the IC50 was 40 nM. `O=c1[nH]c2ccc(S(=O)(=O)N3CCCC(CO)C3)cc2c2ccccc12` (stereo not drawn) [Compound 67] was tested, and the IC50 was 164 nM. `O=c1[nH]c2cc(S(=O)(=O)NCCN3CCOCC3)ccc2c2ccc(F)cc12` [Compound 44] was tested, and the IC50 was 19 nM. `Cc1ccc(S(=O)(=O)Nc2cc3c(cc2C)[nH]c(=O)c2ccccc23)cc1` [Compound 56] showed an IC50 of 5900 nM. In the case of `O=C(O)CCC(NC(=O)c1ccc2c(c1)[nH]c(=O)c1ccccc12)C(=O)O` (stereo not drawn) [Compound 25], the IC50 is reported as 272 nM. `CC(=O)NCCN1CCN(S(=O)(=O)c2ccc3[nH]c(=O)c4ccccc4c3c2)CC1` [Compound 68] was tested, and the IC50 was 142 nM. Work on `NCCCC[C@H](NC(=O)c1ccc2c(c1)[nH]c(=O)c1ccccc12)C(=O)O` [Compound 37] yielded an IC50 of 88 nM. Compound `O=C(N[C@@H](CS)C(=O)O)c1ccc2c(c1)[nH]c(=O)c1ccccc12` [Compound 35] has an IC50 of 83 nM. For `Cc1cc2[nH]c(=O)c3ccccc3c2cc1NC(=O)C[N+](C)(C)C` [Compound 54], the IC50 was 195 nM. `O=C(NC(CO)C(=O)O)c1ccc2c(c1)[nH]c(=O)c1ccccc12` (stereo not drawn) [Compound 30] gave an IC50 of 83 nM. For `COC(=O)[C@@H]1CCCN1C(=O)c1ccc2c(c1)[nH]c(=O)c1cc(F)ccc12` [Compound 19], the IC50 was 157 nM. With `O=C(NCCCc1ccccc1)c1ccc2c(c1)[nH]c(=O)c1cc(F)ccc12` [Compound 57] the IC50 was 415 nM. For `CC(C)[C@H](NC(=O)c1ccc2c(c1)[nH]c(=O)c1ccccc12)C(=O)O` [Compound 39], the IC50 was 25 nM. In the case of `O=c1[nH]c2ccc(S(=O)(=O)NCCN(CCO)CCO)cc2c2ccccc12` [Compound 8], the IC50 is reported as 60 nM. `Cc1cc2[nH]c(=O)c3ccccc3c2cc1NC(=O)C(C)Br` (stereo not drawn) [Compound 63] showed an IC50 of 174 nM. In the case of `COC(=O)[C@@H]1CCCN1C(=O)c1ccc2c(c1)[nH]c(=O)c1ccccc12` [Compound 41], the IC50 is reported as 118 nM. For `O=C(NCc1ccccc1)c1ccc2c(c1)[nH]c(=O)c1cc(F)ccc12` [Compound 16], the IC50 was 399 nM. Compound `O=C(O)[C@H]1CCCN1C(=O)c1ccc2c(c1)[nH]c(=O)c1ccccc12` [Compound 10] has an IC50 of 90 nM. In the case of `CC(NC(=O)c1ccc2c(c1)[nH]c(=O)c1ccccc12)C(=O)O` (stereo not drawn) [Compound 24], the IC50 is reported as 56 nM. `C[C@H](NC(=O)c1ccc2c(c1)[nH]c(=O)c1ccccc12)C(=O)O` [Compound 32] was tested, and the IC50 was 36 nM. `O=C(c1ccc(F)cc1)C1CCN(S(=O)(=O)c2ccc3[nH]c(=O)c4ccccc4c3c2)CC1` [Compound 61] gave an IC50 of 319 nM. With `CC(=O)Nc1cc2c(cc1C)[nH]c(=O)c1ccccc12` [Compound 45] the IC50 was 229 nM. `Cc1cc2[nH]c(=O)c3ccccc3c2cc1NC(=O)CCl` [Compound 47] showed an IC50 of 152 nM. Work on `O=C(O)CCC(=O)Nc1ccc2[nH]c(=O)c3ccccc3c2c1` [Compound 27] yielded an IC50 of 111 nM. Work on `O=c1[nH]c2ccc(S(=O)(=O)NCc3ccncc3)cc2c2ccccc12` [Compound 55] yielded an IC50 of 94 nM. `O=C(NCCOCCO)c1ccc2c(c1)[nH]c(=O)c1ccccc12` [Compound 50] showed an IC50 of 80 nM. In the case of `O=c1[nH]c2ccc(S(=O)(=O)NC3CN4CCC3CC4)cc2c2ccccc12` (stereo not drawn) [Compound 64], the IC50 is reported as 43 nM. In the case of `CCOC(=O)C1CCN(S(=O)(=O)c2ccc3[nH]c(=O)c4ccccc4c3c2)CC1` [Compound 65], the IC50 is reported as 200 nM. In the case of `Cc1cccc2c(=O)[nH]c3cc(C(F)(F)F)c(NC(=O)CCl)cc3c12` [Compound 20], the IC50 is reported as 33 nM. In the case of `Cc1cc2[nH]c(=O)c3ccccc3c2cc1NC(=O)c1cccc(F)c1` [Compound 52], the IC50 is reported as 1200 nM. With `COC(=O)C1CCCN1S(=O)(=O)c1ccc2[nH]c(=O)c3ccccc3c2c1` (stereo not drawn) [Compound 58] the IC50 was 1100 nM. With `O=C(O)[C@@H]1CCCN1C(=O)c1ccc2c(c1)[nH]c(=O)c1cc(F)ccc12` [Compound 21] the IC50 was 124 nM. Work on `O=C(N[C@@H](Cc1ccc(F)cc1)C(=O)O)c1ccc2c(c1)[nH]c(=O)c1ccccc12` [Compound 33] yielded an IC50 of 45 nM. Work on `Cc1cc2[nH]c(=O)c3ccccc3c2cc1NC(=O)Cc1ccc(F)cc1` [Compound 62] yielded an IC50 of 449 nM. `NCCCCC(NC(=O)c1ccc2c(c1)[nH]c(=O)c1ccccc12)C(=O)O` (stereo not drawn) [Compound 28] showed an IC50 of 341 nM. Work on `CC(C)N(C(=O)c1ccc2c(c1)[nH]c(=O)c1ccccc12)C(C)C` [Compound 66] yielded an IC50 of 99 nM. For `CN1CCN(S(=O)(=O)c2ccc3c(c2)[nH]c(=O)c2cc(F)ccc23)CC1` [Compound 43], the IC50 was 108 nM. For `CCC(C)C(NC(=O)c1ccc2c(c1)[nH]c(=O)c1ccccc12)C(=O)O` (stereo not drawn) [Compound 26], the IC50 was 711 nM. With `CCCCC(NC(=O)c1ccc2c(c1)[nH]c(=O)c1ccccc12)C(=O)O` (stereo not drawn) [Compound 29] the IC50 was 54 nM. `O=C(NCCc1ccccc1)c1ccc2c(c1)[nH]c(=O)c1cc(F)ccc12` [Compound 18] showed an IC50 of 150 nM. `O=C(c1ccc2c(c1)[nH]c(=O)c1ccccc12)N1CCOCC1` [Compound 2] showed an IC50 of 100000 nM. Work on `COC(=O)c1ccc2c(c1)[nH]c(=O)c1cc(F)ccc12` [Compound 48] yielded an IC50 of 37 nM. With `Cc1ccc(S(=O)(=O)Nc2ccc3[nH]c(=O)c4ccccc4c3c2)cc1` [Compound 1] the IC50 was 120 nM. Work on `COc1ccc(S(=O)(=O)Nc2cc3c(cc2C)[nH]c(=O)c2ccccc23)cc1` [Compound 60] yielded an IC50 of 11500 nM. Work on `O=C(N[C@H](C(=O)O)c1ccccc1)c1ccc2c(c1)[nH]c(=O)c1ccccc12` [Compound 38] yielded an IC50 of 31 nM.
